The test system of series [1] is mice with LPS-induced sepsis. As to conditions: eight mice per group; intranasal drip pulmonary delivery at 0, 6, 23.5 hr; LPS 50 μg at 24 hour; control three out of eight died. On the procedure:
In all three groups, LPS-induced sepsis was caused by delivery of highly concentrated LPS (50 μg) at 24 hour. […] In the steroid-treated mice, an inhaled corticosteroid (ICS) was delivered for 5 minutes through intranasal drip pulmonary delivery at 0 hr, 6 hr, and 23.5 hr. In the control group, no drug was administered prior to inducing LPS sepsis.

The subject of series [2] is Brown Norway (BN) rats sensitized to ragweed pollen extract. As to conditions: aerosolized 0.05% brimonidine or 0.005% dexmedetomidine for 10 minutes before ragweed extract, FIG. 3.
Protocol: The control group rats were pretreated with aerosolized saline and administered aerosolized saline. The saline group rats were pretreated with aerosolized saline, then exposed to aerosolized ragweed extract for 10 minutes.
At 10 minutes after completion of the allergen exposure, rats were anesthetized and exsanguinated, and their lungs were lavaged with 50 ml of buffer solution. The resulting bronchoalveolar lavage (BAL) fluid was centrifuged to remove the cells, and the supernatants were analyzed for albumin concentration using an ELISA assay for rat albumin.
On series [3], the source says:
The terms “salt” and “constituent of a balanced salt solution” are used interchangeably for the purposes of the present invention. They are a subset of agents that improve solubility of the inventive formulations.

For series [4], the system named is α-2 over α-1 adrenergic receptors. The note with it: cited from earlier work.
The source holds these as a separate data set.
The text on series [5]:
The doses are estimates only, assuming less than 20% nebulized DTL (dose to lung).
The source holds these as a separate data set.

Series [6] can be described thus: Ionization as a function of pH. It counts as physicochemical. The text has this: At a lower pH and a lower lipophilicity, bronchial mucosal membrane retention time is maximized and mucosal penetration is reduced. More of a drug is washed away and less is absorbed into lung parenchyma increasing the surface mucosal effect. The higher the lipophilicity, the greater is the selective α-2 agonist's penetration through the lipophilic mucosal cell membranes. This is because at a more alkaline pH, more of the compound is present in a non-ionized form.
When a selective α-2 agonist is lipophilic, it becomes highly ionized as it enters the distal esophagus and stomach. […] Thus, it is very poorly absorbed in lipophilic membranes of the gastrointestinal tract and therefore, results in less systemic absorption.

For series [7] the following is noted: cited from earlier work.

In general, solubility refers to the concentration that dissolves in the medium under given conditions. Read a high solubility as a readily soluble substance.

Structures are written as SMILES. Converted amounts (≈) assume the structure as drawn. Read-outs that look alike come from different tables or passages of the source. Bounds are passed on as bounds.

Take `Brc1c(NC2=NCCN2)ccc2nccnc12.O=C(O)C(O)C(O)C(=O)O` [brimonidine, 5-bromo-6-(2-imidazolin-2-ylamino)quinoxaline D-tartrate]: the “deaths because of LPS-induced sepsis” value in series [1] is “no animals died”. Also, in [2], the “BAL albumin concentration after ragweed exposure” value was “no apparent protective effect”.
For the molecule `Cc1cccc([C@H](C)c2cnc[nH]2)c1C` [dexmedetomidine], the solubility in “physchem” (pH 6, aqueous buffer) is 1950 µg/mL (≈ 9750 µM); in “physchem” (pH 6.4, aqueous buffer), approximately 600 µg/mL (≈ 3000 µM); in the series “physchem” (pH 7, aqueous buffer), 224 µg/mL (≈ 1120 µM); in “physchem” (pH 7.4, aqueous buffer) it was approximately 150 µg/mL (≈ 749 µM); in the series “physchem” (pH 8, aqueous buffer) it was 134 µg/mL (≈ 669 µM). Moreover, in [3] (pH 7), the “max soluble concentration, BSS solution” value is reported as “≧0.10%”. Moreover, the “soluble concentration with constituents of a balanced salt solution” value in [3] (pH 7.1) was not below 0.1%. For the same molecule, the α2/α1 selectivity entry in [4] is listed as “over 1,500”. This molecule registered a max soluble concentration (pH 6) of 0.195%; a max soluble concentration (pH 6.4) of 0.060%; a max soluble concentration (pH 7) of 0.023%; a max soluble concentration (pH 7.4) of 0.015%; a max soluble concentration (pH 8) of 0.013%. Moreover, in [5] (nebulized 0.03% at pH 5.0, reduced from baseline 10, scale for mild asthma), the wheeze-auscultation score result was “about 5”. In series [5] (nebulized 0.03% at pH 8.0, versus pH 5.0), the “lung effects (wheeze and airway resistance versus baseline)” value is reported as “the lung effects are greater”. In addition, the “BAL albumin concentration after ragweed exposure” value in [2] is given as “albumin levels similar to those of control rats”. The ionized result in series [6] (in pharynx (pH is about 6.8)) is “about 65%”; in series [6] (in stomach (pH of less than 5.0)), approximately 100%; in [6] (lungs and airways, pH about 7.4 to 7.8), 10-23%; in [6] (pH of 6.7), “about 65%”; in series [6] (pH of 8.0 or greater) it was “about 10%”. The non-ionized result in series [6] (pH of 6.7) was “about 35%”; in [6] (pH of 8.0 or greater), “about 90%”.
Regarding `CNC1(c2ccccc2Cl)CCCCC1=O` (stereo not drawn) [ketamine], in series [7] (in vivo), the “plasma level at which dissociative changes have been documented” value was not above 1000 ng/mL and the “plasma level at which sedation occurs” value is reported as “about 9000 μg/L”. The “plasma levels with prior art inhalation forms” value in series [7] (inhalation) was “over 800 ug/L”. Moreover, the ionization entry in series [6] (pH of about 8.5) was “about 10%”. The ionization entry in series [6] (physiologic pH) is “over 60%”.

The values above are taken from US20110244058A1, “Compositions and methods for treatment of pulmonary diseases and conditions” (priority 2008, published 2011).
